Measured values: patent US20150125526A1 (Raptor Pharmaceuticals Inc., priority 2013, published 2015)

Legend:
FRDA fibroblasts = details: preincubation prior to exposure to BSO; cited from earlier work
[1] = test system: mice with the gene mutation for Huntington's disease; details: mouse, in vivo; cited from earlier work
Sod2 null mice [2] = details: untreated Sod2 null mice die after approximately 1 week; cited from earlier work
Sod2 null mice [3] = experiment: Administration of cysteamine bitartrate to Sod2 null mice: survival, weight gain, toxicity; type: in vivo; details: cysteamine bitartrate 30 mg/kg, single dose
Method: Sod2 null mice provide a method for determining the efficacy in vivo of compounds having antioxidant properties, particularly those with mitochondrial efficacy. Without antioxidant efficacy, Sod2 null mice die after approximately 1 week, with antioxidant intervention, the lifespan can be extended 3-fold using powerful catalytic synthetic antioxidants such as EUK-189 (Melov et al., J Neurosci. 21(21):8348-53, 2001).
A single dose of the test agent is administered to the animals, either intraperitoneally or subcutaneously.

[4] = test system: intracellular cystine (circulating white blood cells); details: cited from earlier work

Compound: vitamin E
- protection from cell death (FRDA fibroblasts): protected cells from cell death

Compound: NCCSSCCN [Cystamine]
- life (survival) [1]: prolong life
- tremors [1]: alleviate tremors

Compound: CC(=O)O.CCOc1cccc(C=NCCN=Cc2cccc(OCC)c2[O-])c1[O-].[Mn] [EUK-189]
- extension of lifespan (Sod2 null mice [2]): 3 fold

Compound: NCCS [cysteamine, Cysteamine (HS—CH2—CH2—NH2)]
- weight gain compared to untreated animals (Sod2 null mice [3]; initial experiment): normal
- survival analysis (Sod2 null mice [3]; preliminary experiment): inconclusive
- time to observed decrease in leukocyte cystine ([4]; delivery of cysteamine into the small intestine (WO 2007/089670)): within an hour
- depletion of intracellular cystine ([4]; taken regularly, measured in circulating white blood cells): up to 90%

Compound: COC1=C(OC)C(=O)C(CCCCCCCCCCO)=C(C)C1=O [idebenone]
- protection from cell death (FRDA fibroblasts): protected cells from cell death
